Source: ChEMBL document CHEMBL4765362, “Thirty Years of HDAC Inhibitors: 2020 Insight and Hindsight” (J Med Chem, 2020)

Experiments:
[1] = target: T1, Protein deacetylase HDAC6 (Homo sapiens, UniProt Q9UBN7); experiment: Inhibition of HDAC6 (unknown origin) using p53 residues (379 to 382)(RHKK(Ac)-AMC) as substrate by fluorescent method
T1 sequence (Q9UBN7 whole entry): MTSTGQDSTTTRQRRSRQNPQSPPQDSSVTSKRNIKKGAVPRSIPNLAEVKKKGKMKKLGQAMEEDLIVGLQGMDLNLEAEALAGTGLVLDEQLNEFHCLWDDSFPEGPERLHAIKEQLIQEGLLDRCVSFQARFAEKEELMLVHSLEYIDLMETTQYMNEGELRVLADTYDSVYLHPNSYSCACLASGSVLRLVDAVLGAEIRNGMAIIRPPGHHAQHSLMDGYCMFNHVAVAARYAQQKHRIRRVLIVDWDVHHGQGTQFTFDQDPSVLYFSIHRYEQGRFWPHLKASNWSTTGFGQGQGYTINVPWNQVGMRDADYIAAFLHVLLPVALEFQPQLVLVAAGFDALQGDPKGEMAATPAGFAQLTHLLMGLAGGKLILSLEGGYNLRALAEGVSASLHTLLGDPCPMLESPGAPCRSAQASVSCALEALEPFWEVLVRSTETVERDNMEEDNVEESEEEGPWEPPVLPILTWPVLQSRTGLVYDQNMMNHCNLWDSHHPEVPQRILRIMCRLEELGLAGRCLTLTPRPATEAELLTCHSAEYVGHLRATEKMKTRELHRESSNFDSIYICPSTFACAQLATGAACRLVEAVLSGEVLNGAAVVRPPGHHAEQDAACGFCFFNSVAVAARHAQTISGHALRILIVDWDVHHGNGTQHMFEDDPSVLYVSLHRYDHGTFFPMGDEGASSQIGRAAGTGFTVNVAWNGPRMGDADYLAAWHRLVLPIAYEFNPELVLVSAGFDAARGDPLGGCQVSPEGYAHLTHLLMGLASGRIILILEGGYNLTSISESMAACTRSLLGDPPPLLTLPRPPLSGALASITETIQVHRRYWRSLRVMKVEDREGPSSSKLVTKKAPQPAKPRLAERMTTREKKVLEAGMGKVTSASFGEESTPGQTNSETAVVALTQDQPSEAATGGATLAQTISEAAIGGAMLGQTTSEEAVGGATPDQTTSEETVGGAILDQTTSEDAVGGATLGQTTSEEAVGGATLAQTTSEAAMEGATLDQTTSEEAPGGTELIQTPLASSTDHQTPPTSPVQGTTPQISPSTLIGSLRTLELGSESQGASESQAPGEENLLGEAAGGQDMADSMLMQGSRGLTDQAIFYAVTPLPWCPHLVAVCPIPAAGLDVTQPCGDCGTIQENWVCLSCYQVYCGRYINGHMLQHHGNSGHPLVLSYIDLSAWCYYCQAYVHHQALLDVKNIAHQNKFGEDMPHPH

Histone deacetylase 8 [2] = target: T2, Histone deacetylase 8 (Homo sapiens, UniProt Q9BY41); experiment: Inhibition of HDAC8 (unknown origin) using p53 (379 to 382 residues)(RHK(Ac)K(ac)AMC) as substrate by fluorescent method
T2 sequence (Q9BY41 whole entry): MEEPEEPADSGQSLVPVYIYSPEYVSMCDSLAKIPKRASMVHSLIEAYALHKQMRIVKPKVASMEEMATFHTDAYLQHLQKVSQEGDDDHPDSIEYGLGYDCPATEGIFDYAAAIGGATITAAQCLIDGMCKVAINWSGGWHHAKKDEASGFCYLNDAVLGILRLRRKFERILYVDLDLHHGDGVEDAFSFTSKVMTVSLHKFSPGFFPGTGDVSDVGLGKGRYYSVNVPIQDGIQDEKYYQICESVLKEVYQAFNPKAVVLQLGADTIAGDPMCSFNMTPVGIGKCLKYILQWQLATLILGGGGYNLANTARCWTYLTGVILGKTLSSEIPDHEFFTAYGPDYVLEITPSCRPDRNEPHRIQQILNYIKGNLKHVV

Histone deacetylase 5 = Histone deacetylase 5 (Homo sapiens, UniProt Q9UQL6); experiment: Inhibition of HDAC5 (unknown origin) using HDAC class IIa substrate (trifluoroacetyl-lysine-AMC) as substrate by fluorescent method
Sequence of Histone deacetylase 5 (Q9UQL6 whole entry): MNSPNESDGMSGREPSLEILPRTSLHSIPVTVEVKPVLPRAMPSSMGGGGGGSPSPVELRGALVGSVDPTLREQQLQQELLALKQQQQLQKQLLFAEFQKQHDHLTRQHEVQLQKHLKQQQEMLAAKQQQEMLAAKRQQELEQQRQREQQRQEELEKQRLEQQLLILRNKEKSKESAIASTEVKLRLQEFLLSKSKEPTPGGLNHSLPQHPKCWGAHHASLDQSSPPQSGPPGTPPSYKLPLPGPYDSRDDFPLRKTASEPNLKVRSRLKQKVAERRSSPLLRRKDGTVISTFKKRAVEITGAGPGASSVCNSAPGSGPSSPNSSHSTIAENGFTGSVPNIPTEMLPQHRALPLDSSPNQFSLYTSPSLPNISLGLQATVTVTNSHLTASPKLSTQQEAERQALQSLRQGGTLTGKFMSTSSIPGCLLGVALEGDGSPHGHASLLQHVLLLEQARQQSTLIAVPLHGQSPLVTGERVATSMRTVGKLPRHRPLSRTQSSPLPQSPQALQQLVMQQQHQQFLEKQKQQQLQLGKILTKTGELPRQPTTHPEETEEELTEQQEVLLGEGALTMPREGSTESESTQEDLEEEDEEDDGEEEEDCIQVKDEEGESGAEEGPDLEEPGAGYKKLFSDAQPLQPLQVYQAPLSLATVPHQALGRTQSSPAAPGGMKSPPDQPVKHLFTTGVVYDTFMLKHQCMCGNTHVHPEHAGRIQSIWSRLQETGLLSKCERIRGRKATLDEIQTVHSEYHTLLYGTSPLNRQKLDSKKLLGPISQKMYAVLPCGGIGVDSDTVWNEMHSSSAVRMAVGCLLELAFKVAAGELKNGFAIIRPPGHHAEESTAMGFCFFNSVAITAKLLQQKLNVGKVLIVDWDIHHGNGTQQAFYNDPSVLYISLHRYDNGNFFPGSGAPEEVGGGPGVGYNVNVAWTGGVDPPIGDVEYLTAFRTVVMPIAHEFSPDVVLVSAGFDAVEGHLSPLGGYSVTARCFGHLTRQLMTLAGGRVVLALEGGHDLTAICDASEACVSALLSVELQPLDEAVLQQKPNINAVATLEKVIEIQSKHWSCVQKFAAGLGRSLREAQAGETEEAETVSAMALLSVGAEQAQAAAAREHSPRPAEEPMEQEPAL

Histone deacetylase 9 [3] = target: T3, Histone deacetylase 9 (Homo sapiens, UniProt Q9UKV0); experiment: Inhibition of HDAC9 (unknown origin) using HDAC class IIa substrate (trifluoroacetyl-lysine-AMC) as substrate by fluorescent method
T3 sequence (Q9UKV0 whole entry): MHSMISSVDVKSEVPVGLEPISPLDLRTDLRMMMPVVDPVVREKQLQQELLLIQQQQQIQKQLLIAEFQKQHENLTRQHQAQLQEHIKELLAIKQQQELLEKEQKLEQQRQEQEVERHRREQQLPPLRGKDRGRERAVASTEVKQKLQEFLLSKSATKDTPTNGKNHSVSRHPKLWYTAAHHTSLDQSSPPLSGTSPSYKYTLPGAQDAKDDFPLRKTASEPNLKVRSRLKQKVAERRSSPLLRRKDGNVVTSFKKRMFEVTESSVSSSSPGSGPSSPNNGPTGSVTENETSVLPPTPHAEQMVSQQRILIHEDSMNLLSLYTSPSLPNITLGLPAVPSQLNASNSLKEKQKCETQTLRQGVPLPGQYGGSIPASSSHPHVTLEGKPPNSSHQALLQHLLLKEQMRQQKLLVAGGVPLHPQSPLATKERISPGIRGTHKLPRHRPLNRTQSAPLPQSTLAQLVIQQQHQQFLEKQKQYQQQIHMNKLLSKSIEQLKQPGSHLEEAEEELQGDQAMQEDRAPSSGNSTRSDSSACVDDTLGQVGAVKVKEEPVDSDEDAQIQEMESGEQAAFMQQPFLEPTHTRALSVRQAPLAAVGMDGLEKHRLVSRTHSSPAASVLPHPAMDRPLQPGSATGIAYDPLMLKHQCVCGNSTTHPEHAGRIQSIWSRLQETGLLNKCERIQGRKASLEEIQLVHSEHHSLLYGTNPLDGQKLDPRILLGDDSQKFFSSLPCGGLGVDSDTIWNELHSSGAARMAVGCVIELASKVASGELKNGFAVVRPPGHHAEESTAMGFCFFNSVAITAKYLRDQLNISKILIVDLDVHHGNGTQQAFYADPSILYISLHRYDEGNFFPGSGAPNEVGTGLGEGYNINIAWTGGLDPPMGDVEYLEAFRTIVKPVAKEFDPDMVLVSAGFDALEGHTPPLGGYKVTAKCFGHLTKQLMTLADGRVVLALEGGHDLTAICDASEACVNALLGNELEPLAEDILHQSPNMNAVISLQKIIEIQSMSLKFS

Histone deacetylase 4 [4] = target: T4, Histone deacetylase 4 (Homo sapiens, UniProt P56524); experiment: Inhibition of HDAC4 (unknown origin) using HDAC class IIa substrate (trifluoroacetyl-lysine-AMC) as substrate by fluorescent method
T4 sequence (P56524 whole entry): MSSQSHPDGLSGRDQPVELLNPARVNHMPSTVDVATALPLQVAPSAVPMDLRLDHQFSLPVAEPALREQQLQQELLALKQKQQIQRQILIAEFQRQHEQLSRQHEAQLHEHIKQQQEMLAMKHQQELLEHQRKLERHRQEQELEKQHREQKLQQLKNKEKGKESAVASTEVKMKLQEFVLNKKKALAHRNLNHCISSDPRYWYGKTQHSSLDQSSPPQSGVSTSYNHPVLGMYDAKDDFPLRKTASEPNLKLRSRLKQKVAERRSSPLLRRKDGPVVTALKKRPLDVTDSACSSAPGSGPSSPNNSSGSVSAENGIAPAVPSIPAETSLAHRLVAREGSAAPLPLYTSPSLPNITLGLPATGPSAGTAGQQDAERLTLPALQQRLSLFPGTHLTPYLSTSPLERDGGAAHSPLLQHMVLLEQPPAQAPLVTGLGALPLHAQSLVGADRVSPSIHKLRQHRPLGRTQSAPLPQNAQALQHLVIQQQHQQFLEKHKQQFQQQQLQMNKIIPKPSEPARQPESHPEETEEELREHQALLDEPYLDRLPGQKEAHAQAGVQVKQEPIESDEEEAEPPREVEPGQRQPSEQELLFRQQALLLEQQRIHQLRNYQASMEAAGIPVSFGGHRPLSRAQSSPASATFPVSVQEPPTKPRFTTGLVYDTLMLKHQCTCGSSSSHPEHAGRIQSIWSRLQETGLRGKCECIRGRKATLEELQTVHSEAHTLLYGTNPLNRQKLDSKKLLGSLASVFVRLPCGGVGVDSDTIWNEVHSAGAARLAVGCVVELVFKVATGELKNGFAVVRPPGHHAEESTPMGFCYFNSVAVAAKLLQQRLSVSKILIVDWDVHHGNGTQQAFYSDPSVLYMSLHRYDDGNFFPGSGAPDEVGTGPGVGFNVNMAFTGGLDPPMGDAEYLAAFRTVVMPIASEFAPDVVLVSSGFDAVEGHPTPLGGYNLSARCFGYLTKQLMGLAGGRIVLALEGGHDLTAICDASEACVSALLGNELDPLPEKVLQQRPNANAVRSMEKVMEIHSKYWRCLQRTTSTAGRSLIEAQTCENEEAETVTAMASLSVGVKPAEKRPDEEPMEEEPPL

Histone deacetylase 8 [5] = target: T2, Histone deacetylase 8; experiment: Inhibition of HDAC8 (unknown origin)
[6] = target: T1, Protein deacetylase HDAC6; experiment: Inhibition of HDAC6 (unknown origin)
Histone deacetylase 3 = Histone deacetylase 3 (Homo sapiens, UniProt O15379); experiment: Inhibition of HDAC3 (unknown origin)
Sequence of Histone deacetylase 3 (O15379 whole entry): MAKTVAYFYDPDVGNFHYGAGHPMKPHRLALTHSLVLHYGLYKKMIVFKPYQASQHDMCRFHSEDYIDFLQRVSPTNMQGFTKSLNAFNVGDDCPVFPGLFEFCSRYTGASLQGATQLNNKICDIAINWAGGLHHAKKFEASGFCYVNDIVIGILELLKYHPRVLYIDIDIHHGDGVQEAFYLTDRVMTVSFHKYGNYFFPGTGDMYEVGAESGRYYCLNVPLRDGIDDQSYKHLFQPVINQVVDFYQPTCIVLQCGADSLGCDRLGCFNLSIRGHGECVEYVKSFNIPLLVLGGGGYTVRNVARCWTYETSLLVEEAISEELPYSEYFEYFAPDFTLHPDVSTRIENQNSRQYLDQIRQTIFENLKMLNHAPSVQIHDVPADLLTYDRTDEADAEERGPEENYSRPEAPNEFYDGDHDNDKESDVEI

Histone deacetylase 1 = Histone deacetylase 1 (Homo sapiens, UniProt Q13547); experiment: Inhibition of human full length C-terminal Flag tagged HDAC1 expressed in HEK293T cells using H3K9-myristoyl peptide as substrate by HPLC method
Sequence of Histone deacetylase 1 (Q13547 whole entry): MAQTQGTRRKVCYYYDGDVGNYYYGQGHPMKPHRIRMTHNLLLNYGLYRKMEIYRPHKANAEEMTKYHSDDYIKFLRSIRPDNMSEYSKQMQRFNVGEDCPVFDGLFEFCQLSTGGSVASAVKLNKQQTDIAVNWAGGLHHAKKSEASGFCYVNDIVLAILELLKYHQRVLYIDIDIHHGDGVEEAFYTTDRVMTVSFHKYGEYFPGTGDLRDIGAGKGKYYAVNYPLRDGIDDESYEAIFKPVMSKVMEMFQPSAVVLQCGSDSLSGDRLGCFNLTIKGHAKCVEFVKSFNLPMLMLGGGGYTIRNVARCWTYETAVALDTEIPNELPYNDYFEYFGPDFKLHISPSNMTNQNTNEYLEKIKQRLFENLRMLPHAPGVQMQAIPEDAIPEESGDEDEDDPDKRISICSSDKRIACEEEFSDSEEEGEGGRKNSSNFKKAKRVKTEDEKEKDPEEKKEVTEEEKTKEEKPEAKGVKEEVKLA

Histone deacetylase 9 [7] = target: T3, Histone deacetylase 9; experiment: Inhibition of HDAC9 (unknown origin)
Histone deacetylase 4 [8] = target: T4, Histone deacetylase 4; experiment: Inhibition of human full length C-terminal Flag tagged HDAC4 expressed in HEK293T cells using H3K9-myristoyl peptide as substrate by HPLC method
Histone deacetylase 2 = Histone deacetylase 2 (Homo sapiens, UniProt Q92769); experiment: Inhibition of HDAC2 (unknown origin)
Sequence of Histone deacetylase 2 (Q92769 whole entry): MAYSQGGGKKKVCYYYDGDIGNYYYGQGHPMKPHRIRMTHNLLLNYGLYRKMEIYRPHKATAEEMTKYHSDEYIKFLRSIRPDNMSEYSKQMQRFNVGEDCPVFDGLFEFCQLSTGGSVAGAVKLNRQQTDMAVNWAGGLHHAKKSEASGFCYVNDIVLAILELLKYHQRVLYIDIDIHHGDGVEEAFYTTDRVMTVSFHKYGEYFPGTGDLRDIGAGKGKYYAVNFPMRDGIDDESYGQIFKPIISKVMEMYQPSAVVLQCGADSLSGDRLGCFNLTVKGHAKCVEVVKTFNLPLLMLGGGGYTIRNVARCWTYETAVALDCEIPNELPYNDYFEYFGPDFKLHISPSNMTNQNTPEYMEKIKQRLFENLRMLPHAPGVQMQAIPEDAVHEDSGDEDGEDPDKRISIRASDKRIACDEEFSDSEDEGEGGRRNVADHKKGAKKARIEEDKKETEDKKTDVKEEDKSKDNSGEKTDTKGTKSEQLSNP

Histone deacetylase 11 = target: T5, Histone deacetylase 11 (Homo sapiens, UniProt Q96DB2); experiment: Inhibition of human full length C-terminal Flag tagged HDAC11 expressed in HEK293T cells assessed as reduction in demyristoylation activity using H3K9-myristoyl peptide as substrate by HPLC method
T5 sequence (Q96DB2 whole entry): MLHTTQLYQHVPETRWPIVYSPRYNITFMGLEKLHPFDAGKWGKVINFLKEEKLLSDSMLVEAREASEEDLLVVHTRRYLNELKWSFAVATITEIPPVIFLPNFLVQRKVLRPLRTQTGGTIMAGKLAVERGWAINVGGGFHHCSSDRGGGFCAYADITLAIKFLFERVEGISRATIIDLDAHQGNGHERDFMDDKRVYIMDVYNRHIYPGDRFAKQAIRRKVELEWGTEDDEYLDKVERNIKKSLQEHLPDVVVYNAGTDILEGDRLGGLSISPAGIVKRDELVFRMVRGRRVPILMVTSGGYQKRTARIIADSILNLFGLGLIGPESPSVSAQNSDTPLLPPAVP

Row | IC50 [1] | IC50 (Histone deacetylase 8 [2]) | IC50 (Histone deacetylase 5) | IC50 (Histone deacetylase 9 [3]) | IC50 (Histone deacetylase 4 [4]) | IC50 (Histone deacetylase 8 [5]) | IC50 [6] | IC50 (Histone deacetylase 3) | IC50 (Histone deacetylase 1) | IC50 (Histone deacetylase 9 [7]) | IC50 (Histone deacetylase 4 [8]) | IC50 (Histone deacetylase 2) | IC50 (Histone deacetylase 11) | Compound
1 | > 10 µM | > 10 µM | > 10 µM | > 10 µM | > 10 µM | – | – | – | – | – | – | – | – | Cn1cc(-c2ccc(S(=O)(=O)n3ccc(/C=C/C(=O)Nc4ccccc4N)c3)cc2)cn1 [DOMATINOSTAT]
2 | – | – | – | – | – | 6 µM | > 10 µM | > 10 µM | > 10 µM | > 10 µM | > 10 µM | > 10 µM | 830 nM | CCCCCCCCCCCCCCCCNNC(=O)c1cccs1
